Tests used:
[1] = Cytotoxicity against human MCF-10A cells assessed as inhibition of cell proliferation incubated for 48 hrs by MTT assay; assay type: toxicity, cell-based
[2] = system: HepG2; assay: Antiproliferative activity against human HepG2 cells assessed as inhibition of cell proliferation incubated for 48 hrs by MTT assay; assay type: functional, cell-based; details: HepG2, 48 h
[3] = Cytotoxicity against human GES1 cells assessed as inhibition of cell proliferation incubated for 48 hrs by MTT assay; assay type: toxicity, cell-based
[4] = system: MCF7; assay: Antiproliferative activity against human MCF7 cells assessed as inhibition of cell proliferation incubated for 48 hrs by MTT assay; assay type: functional, cell-based; details: MCF7, 48 h
[5] = Cytotoxicity against human L02 cells assessed as inhibition of cell proliferation incubated for 48 hrs by MTT assay; assay type: toxicity, cell-based
[6] = system: BGC-823; assay: Antiproliferative activity against human BGC-823 cells assessed as inhibition of cell proliferation incubated for 48 hrs by MTT assay; assay type: functional, cell-based; details: BGC-823, 48 h
[7] = system: MGC-803; assay: Antiproliferative activity against human MGC-803 cells assessed as inhibition of cell proliferation incubated for 48 hrs by MTT assay; assay type: functional, cell-based; details: MGC-803, 48 h
[8] = system: NCI-N87; assay: Antiproliferative activity against human NCI-N87 cells assessed as inhibition of cell proliferation incubated for 48 hrs by MTT assay; assay type: functional, cell-based; details: NCI-N87, 48 h
[9] = Selectivity index, ratio of IC50 for cytotoxicity against human GES1 cells to IC50 for antiproliferative activity against human BGC-823 cells in presence of H2O2; assay type: toxicity, cell-based; details: GES1 cells and BGC-823 cells, read-out: Ratio IC50
[10] = system: SGC-7901; assay: Antiproliferative activity against human SGC-7901 cells assessed as inhibition of cell proliferation incubated for 48 hrs by MTT assay; assay type: functional, cell-based; details: SGC-7901, 48 h
[11] = system: BGC-823; assay: Antiproliferative activity against human BGC-823 cells assessed as inhibition of cell proliferation preincubated with H2O2 for 2 hrs followed by compound addition and measured after 48 hrs by MTT assay; assay type: functional, cell-based

Structure (SMILES)	IC50 [2]	IC50 [4]	IC50 [6]	IC50 [7]	IC50 [10]	IC50 [11]	IC50 at 48 h [1]	IC50 at 48 h [3]	IC50 at 48 h [5]	IC50 [8]	selectivity ratio [9]
CC1(C)CC[C@]2(C(=O)OCCOC(=O)c3ccc(OCc4ccc(B5OC(C)(C)C(C)(C)O5)cc4)cc3)CC[C@]3(C)[C@H](C(=O)C=C4[C@@]5(C)C=C(C#N)C(=O)C(C)(C)[C@@H]5CC[C@]43C)[C@@H]2C1	3.6 µM	2.9 µM	3.8 µM				4 µM	4.7 µM	5 µM		
COc1cc(C(=O)OCCCCOC(=O)[C@]23CCC(C)(C)C[C@H]2[C@H]2C(=O)C=C4[C@@]5(C)C=C(C#N)C(=O)C(C)(C)[C@@H]5CC[C@@]4(C)[C@]2(C)CC3)cc(OC)c1OCc1ccc(B2OC(C)(C)C(C)(C)O2)cc1	5.4 µM	3.5 µM	3.5 µM				4 µM	4.2 µM	6.1 µM		
COc1ccc(/C=C/CC(=O)OCCCOC(=O)[C@]23CCC(C)(C)C[C@H]2[C@H]2C(=O)C=C4[C@@]5(C)C=C(C#N)C(=O)C(C)(C)[C@@H]5CC[C@@]4(C)[C@]2(C)CC3)cc1OCc1ccc(B2OC(C)(C)C(C)(C)O2)cc1	3.6 µM	3.5 µM	5.5 µM				4 µM	6.6 µM	5 µM		
CC1(C)CC[C@]2(C(=O)OCCCOC(=O)c3ccc(OCc4ccc(B5OC(C)(C)C(C)(C)O5)cc4)cc3)CC[C@]3(C)[C@H](C(=O)C=C4[C@@]5(C)C=C(C#N)C(=O)C(C)(C)[C@@H]5CC[C@]43C)[C@@H]2C1	3 µM	1.5 µM	2 µM				3.1 µM	2.7 µM	3.6 µM		

Further lines, with some results ahead:

IC50 [2]	IC50 [4]	IC50 [6]	IC50 [7]	IC50 [10]	IC50 [11]	Structure (SMILES)	IC50 at 48 h [1]	IC50 at 48 h [3]	IC50 at 48 h [5]	IC50 [8]	selectivity ratio [9]
2.8 µM	1.6 µM	2.1 µM				CC1(C)CC[C@]2(C(=O)OCCCCCOC(=O)c3ccc(OCc4ccc(B5OC(C)(C)C(C)(C)O5)cc4)cc3)CC[C@]3(C)[C@H](C(=O)C=C4[C@@]5(C)C=C(C#N)C(=O)C(C)(C)[C@@H]5CC[C@]43C)[C@@H]2C1	3.1 µM	2.8 µM	3.5 µM		
2.8 µM	1.1 µM	1.2 µM				CC1(C)CC[C@]2(C(=O)OCCCOc3ccc(NC(=O)OCc4ccc(B5OC(C)(C)C(C)(C)O5)cc4)cc3)CC[C@]3(C)[C@H](C(=O)C=C4[C@@]5(C)C=C(C#N)C(=O)C(C)(C)[C@@H]5CC[C@]43C)[C@@H]2C1	1.8 µM	1.5 µM	3.5 µM		
3.9 µM	2.7 µM	1.4 µM	2.7 µM	3.1 µM	0.8 µM	CC1(C)CC[C@]2(C(=O)OCCCCCOc3ccc(NC(=O)OCc4ccc(B5OC(C)(C)C(C)(C)O5)cc4)cc3)CC[C@]3(C)[C@H](C(=O)C=C4[C@@]5(C)C=C(C#N)C(=O)C(C)(C)[C@@H]5CC[C@]43C)[C@@H]2C1	5.9 µM	3 µM	4.9 µM	1.6 µM	3.75

— ChEMBL document CHEMBL5576127, “New CDDO Arylboronate Ester Derivatives with High Selectivity and Low Toxicity” (J Med Chem, 2024)
